Patent US20240238278A1, “Pharmaceutical Composition for Preventing or Treating Fibrosis” (Daewoong Pharmaceutical Co., Ltd., priority 2021, published 2024)

How the values were obtained:
[1] = system: DHLF cell line; assay: Non-clinical anti-fibrotic efficacy: Western blotting of TGF-β treated DHLF cell line; type: cell-based; conditions: TGF-β 10 ng/ml, 72 hours
Experimental: 10 mM of the first component was diluted with DMSO so as to be to 100 uM. It was diluted with DMSO so as to be 10, 3, 1 uM, and 10 mM of the second component (NIN) was diluted with DMSO to be 50 nM.
A DHLF cell line (FGM™-2 Bullet Kit™, 10% FBS), which is a lung fibrosis cell line, was prepared, and cultured in a T75 Easy Flask Filter at 37° C. and 5% CO2 using FBM medium. The cultured DHLF cell line was treated with 10 ng/mL of TGF-β and the test drug alone or in combination, cultured for 72 hours, then the media was removed, the protein was extracted, and the extracted protein was quantified using the BCA Protein Assay Kit. Based on the quantitative value of each extracted protein, 10 to 20 ug of protein was subjected to Western blotting. The protein after running was transferred to the PVDF membrane. After TBS-T washing 3 times, each PVDF membrane was treated with 1 mL of ECL solution, and then the protein expression level was measured using an AI680 imager. Each band value was calculated as a numerical value normalized compared to β-actin through ImageJ, and is shown in Tables 2 and 3 and FIGS. 1 and 2 below.

[2] = system: animal model of pulmonary fibrosis; assay: Lung function evaluation (SpO2) in BLM animal model; type: in vivo, mouse; conditions: BLM mice, PO, day 21, first component 10 mg/kg, NIN 60 mg/kg, PID 200 mg/kg
Experimental: (§1) 70-100 uL of BLM solution (bleomycin 1-3 mg/kg) was administered to a lung of the acclimatized experimental animals using a catheter for 5 days or more. In accordance with the purpose of the test, the test drug was administered 7 days after BLM administration, and the drug was orally administered for 2 weeks until the 21st day of BLM administration.
This lung function evaluation is the most direct and important evaluation index that has the greatest influence on the symptoms and quality of life of patients with pulmonary fibrosis, and is an experiment that can most directly show the effect of improving lung function in an animal model of pulmonary fibrosis by measuring the oxygen concentration in the body.
On the 21st day, it was measured with a SpO2 measuring device (Berry, Veterinary Pulse Oximeter) via the abdominal side of the mouse, and the results are shown in Table 5 and FIG. 3.

[3] = system: animal model of pulmonary fibrosis; assay: Measurement of total collagen content in lung (INSOLUBLE Collagen Assay); type: in vivo, mouse; conditions: BLM mice, PO, day 21, n 9; first component 10 mg/kg, NIN 60 mg/kg, PID 200 mg/kg
Experimental: as §1
In this experimental example, analysis was performed using INSOLUBLE Collagen Assay (Biocolor, S2000). After sacrifice on the 21st day, the cryopreserved lung tissue was pulverized by adding 100 uL of Fragmentation Reagent, and then, 100 uL of 37% HCl was added and incubated at 65° C. for 3 hours. The contents of the tube were shaken at 30 minute intervals to aid tissue disintegration. After centrifugation, the concentration was adjusted to 100 μL and collagen staining was proceeded to prepare a sample. Absorbance was measured at 560 nm.

[4] = system: animal model of pulmonary fibrosis; assay: Inflammation cell count analysis in BALF; type: in vivo; conditions: BLM mice, PO, day 21; first component 10 mg/kg, NIN 60 mg/kg, PID 200 mg/kg
Experimental: as §1
At the sacrifice on the 21st day of administration, BALF (Bronchoalveolar lavage fluid) cells obtained through airway washing of mice were diluted with 1.05×PBS and attached to a slide, and then the slide was immersed and removed for 30 seconds in the order of 1, 2, 3 diff quick stain solution, and stained. It was counted based on 500 cells. Macrophages are the largest in size, mononuclear, and stained blue. Neutrophils and eosinophils form polynuclear cells, but eosinophils are stained red with eosin and distinguished from neutrophils. Lymphocytes have very less cytoplasm and are small in size as monocytes.

[5] = Measurement of change in body weight in BLM animal model; type: in vivo, mouse; parameters: unit not given here; conditions: BLM mice, first component 10 mg/kg, NIN 60 mg/kg, PID 200 mg/kg
Experimental: as §1
The body weight was measured once every 0, 7, 14, 17, and 21 days for 3 weeks, and from the 14th day when the drug effect began to be noticeable after the administration, it was measured every 3 days.

[6] = Drug interaction clinical trial, combined administration; type: in vivo, human; conditions: Part 2, healthy adults; first component 150 mg enteric tablet
Experimental: To evaluate the drug interaction during the combined administration of the first component and the second component, a clinical trial was conducted on a total of 48 healthy adults, divided into two groups of 24 each for Part 1 and Part 2. The clinical trial was designed by a fixed sequence, three-phase, and one 150 mg enteric tablet of the first component was orally administered.
Subjects enrolled in Part 1 were sequentially given a single dose of 600 mg of the second component (PID) in the phase 1, a single dose of 150 mg of the first component in the phase 2. After that, washout progressed on the 3rd day, and 150 mg of the first component was administered multiple times for 3 days, and in the final phase 3, a single dose of the first component and the second components (NIN) was administered in combination.

[7] = Table 2, second component (NIN) 50 ng/ml alone
[8] = Table 3, second component (NIN) 100 ng/ml alone

Question: Which results are given for `COC(=O)c1ccc2c(c1)NC(=O)/C2=C(\Nc1ccc(N(C)C(=O)CN2CCN(C)CC2)cc1)c1ccccc1` [Second component (NIN), Nintedanib]?
Answer: COL1A1 Relative value (based on control) [1, 7]: 4.60; SMA-α Relative value (based on control) [1, 7]: 2.63; COL1A1 Relative value (based on control) [1, 8]: 2.81; SMA-α Relative value (based on control) [1, 8]: 2.99; SpO2 Average value [2]: 79.8; SpO2 Differance ([2]; vs vehicle): 3.8; SpO2 Rate of increase ([2]; vs vehicle): 5%; total collagen content in lung (hydroxyproline value, ratio compared with normal group) [3]: 192; Eosinophil count in BALF [4]: 0; Lymphocyte count in BALF [4]: 5; Macrophage count in BALF [4]: 53; Neutrophil count in BALF [4]: 10; total cell in BALF [4]: 69 10^4; change in body weight ([5]; Day 0): 0.0; change in body weight ([5]; Day 7): −10.1; change in body weight ([5]; Day 14): −22.6; change in body weight ([5]; Day 17): −20.0; change in body weight ([5]; Day 21): −18.2; drug interaction when administered in combination with the first component vs alone [6]: no clinically significant drug interaction
